# Assay results published in patent US20230181611A1, “REELIN/VEGF-C PRODUCTION/ACTIVATION PROMOTER AND SKIN EXTERNAL COMPOSITION USING THE SAME” (AMOREPACIFIC CORPORATION, priority 2021, published 2023).
# Legend:
# [1] = system: Human dermal lymphatic endothelial cells (HDLEC); test: Cytotoxicity analysis (WST-8 cell viability); format: cell-based; conditions: 0 to 200 ppm (μg/ml), 24 hours and 72 hours, FIG. 1
# Protocol: Human dermal lymphatic endothelial cells (HDLEC, PromoCell, Germany) were newly cultured in 96 well dishes for one day and then treated with a compound represented by Chemical Formula E-1 (Biogenics Company) at each concentration of 0 ppm (μg/ml) to 200 ppm (μg/ml). The cells were cultured for 24 hours and 72 hours, and then measured with respect to absorbance at 450 nm by using a QuantiMax WST-8 Cell viability assay kit to check cell viability, and the results are shown in FIG. 1.
# reelin = test: Reelin cytokine analysis (ELISA); format: cell-based, human; conditions: HDLEC, 10 ppm, 48 hours, DMSO control = 100%, FIG. 2
# Protocol: After culturing human dermal lymphatic endothelial cells in 6 well plates for 24 hours, while the cells treated with DMSO were used as a control (reference, 100%), the cells were treated with the compound represented by Chemical Formula E-1 at a concentration of 10 ppm and cultured for 48 hours and then measured with respect to production and activity of reelin through a reelin cytokine analysis by using human ELISA Kit (Mybiosource, U.S.A.) according to a manual, and the results are shown in FIG. 2.
# VEGF-C = VEGF-C cytokine analysis (ELISA); format: cell-based, human; conditions: HDLEC, 1 ppm and 10 ppm, 48 hours, DMSO control = 100%, FIG. 3
# Protocol: After culturing human dermal lymphatic endothelial cells in 6 well plates for 24 hours, while the cells treated with DMSO as a control (reference, 100%), the cells were treated with the compound represented by Chemical Formula E-1 at each concentration of 1 ppm and 10 ppm and cultured for 48 hours and then measured with respect to production and activity of VEGF-C through a VEGF-C cytokine analysis by using a VEGFC human ELISA Kit (ThermoFisher, U.S.A.) according to a manual, and the results are shown in FIG. 3.
structure (smiles),measurement,setting,value
CC1(C)[C@@H](O[C@H]2OC(C(=O)O)[C@@H](O)C(O)C2O[C@@H]2OC(C(=O)O)[C@@H](O)C(O)C2O)CC[C@]2(C)[C@H]3C(=O)C=C4[C@@H]5C[C@@](C)(C(=O)O)CC[C@]5(C)CC[C@@]4(C)[C@]3(C)CC[C@@H]12 (stereo partly drawn) [Chemical Formula E-1],cytotoxicity (cell viability),[1],no cytotoxicity
same,production and activity of reelin compared with the control,reelin,further improve production and activity of reelin
same,production and activity of VEGF-C compared with the control,VEGF-C,further improve production and activity of VEGF-C
